Test results as given in BindingDB's records for PubMed 2795135 (Stanford University, 1989).
Where “and” joins values, the source holds several entries; their conditions need not be identical. Identical values can stand only once.

Assays:
[1] = biological target: 5-hydroxytryptamine receptor 2B (Bos taurus, UniProt Q8MI09)
[2] = biological target: 5-hydroxytryptamine receptor 2A (Rattus norvegicus, UniProt P14842)
5-hydroxytryptamine receptor 2A, sequence (P14842 whole entry): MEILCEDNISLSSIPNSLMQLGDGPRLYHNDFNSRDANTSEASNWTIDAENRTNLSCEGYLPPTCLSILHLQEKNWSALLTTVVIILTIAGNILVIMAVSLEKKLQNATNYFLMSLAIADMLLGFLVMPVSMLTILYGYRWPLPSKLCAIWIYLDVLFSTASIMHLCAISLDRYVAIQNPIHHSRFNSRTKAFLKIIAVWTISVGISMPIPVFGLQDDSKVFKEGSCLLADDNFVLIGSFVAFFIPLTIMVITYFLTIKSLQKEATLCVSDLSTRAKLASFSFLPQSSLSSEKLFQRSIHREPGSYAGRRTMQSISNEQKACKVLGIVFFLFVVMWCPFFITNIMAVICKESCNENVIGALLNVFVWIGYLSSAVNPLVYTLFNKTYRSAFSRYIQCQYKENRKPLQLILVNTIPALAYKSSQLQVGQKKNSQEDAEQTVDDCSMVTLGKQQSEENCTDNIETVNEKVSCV

5-hydroxytryptamine receptor 2B, sequence (Q8MI09 whole entry): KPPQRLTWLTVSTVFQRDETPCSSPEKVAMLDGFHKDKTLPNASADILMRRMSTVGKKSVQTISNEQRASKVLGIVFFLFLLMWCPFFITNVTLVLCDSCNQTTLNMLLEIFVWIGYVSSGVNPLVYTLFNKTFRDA

Row | SMILES | Ki [1] | Ki [2]
1 | COc1cc(CCN)cc(OC)c1OC [3,4,5-trimethoxyphenylethylamine] | > 10000 nM | 150 nM
2 | CCc1cc(OC)c(CC(C)N)cc1OC (stereo not drawn) | 80 nM | 
3 | c1ccc2nc(N3CCNCC3)ccc2c1 [2-Piperazin-1-yl-quinoline (Quipazine)] | 460 nM | 5 nM
4 | CCCN(CCC)C1CCc2cccc(O)c2C1 (stereo not drawn) | 5400 nM | 700 nM
5 | CN(C)CCc1c[nH]c2ccccc12 [2-(1H-indol-3-yl)-N,N-dimethylethanamine] | 550 nM | 42 nM
6 | CN(C)CCCSc1ccccc1NC(=O)/C=C/c1ccccc1 [CINANSERIN] | 5 nM | 7 nM
7 | CCN(CC)C(=O)[C@@H]1C=C2c3cccc4[nH]cc(c34)C[C@H]2N(C)C1 [(4R,7R)-N,N-diethyl-6-methyl-6,11-diazatetracyclo[7.6.1.0^{2,7}.0^{12,16}]hexadeca-1(16),2,9,12,14-pentaene-4-carboxamide] | 11 nM | 
8 | CN1C[C@@H](NS(=O)(=O)N(C)C)C[C@@H]2c3cccc4c3c(cn4C)C[C@H]21 [MESULERGINE] | 8 nM | 
9 | Clc1cccc(N2CCNCC2)c1 [mCPP] | 960 nM | 21 nM
10 | NCCc1c[nH]c2ccc(C(N)=O)cc12 [[3H]-5-carboxamidotryptamine] | > 10000 nM | 
11 | NCCc1c[nH]c2ccccc12 [1H-indole-3-ethanamine] | 1300 nM | 11 nM
12 | COc1cc(CC(C)N)c(OC)cc1C (stereo not drawn) [(+/-)2-(2,5-Dimethoxy-4-methyl-phenyl)-1-methyl-ethylamine] | 400 nM | 4.8 nM
13 | COc1ccc2[nH]cc(C3=CCNCC3)c2c1 [5-Methoxy-3-(1,2,3,6-tetrahydro-pyridin-4-yl)-1H-indole(RU-24969)] | 1200 nM | 
14 | O=C(c1ccc(F)cc1)C1CCN(CCn2c(=O)[nH]c3ccccc3c2=O)CC1 [3-(2-{4-[(4-fluorophenyl)carbonyl]piperidin-1-yl}ethyl)-1,2,3,4-tetrahydroquinazoline-2,4-dione] | 2.4 nM | 
15 | COc1ccc2[nH]cc(CCN(C)C)c2c1 [3-(2-DIMETHYLAMINOETHYL)-5-METHOXYINDOLE] | 1300 nM | 14 nM
16 | COc1cc(CC(C)N)c(OC)cc1I (stereo not drawn) [[125I]2,5-dimethoxy-4-iodoamphetamine] | 100 nM and 55 nM | 0.89 nM and 0.53 nM
17 | CN(C)CCc1c[nH]c2cccc(OP(=O)(O)O)c12 [psilocybin] | 600 nM | 13 nM
18 | CN(C)CCCN1c2ccccc2Sc2ccc(Cl)cc21 [[3-(2-Chloro-phenothiazin-10-yl)-propyl]-dimethyl-amine(Chlorpromazine)] | 6 nM | 
19 | CN1C2CCC1CC(OC(=O)c1c[nH]c3ccccc13)C2 (stereo not drawn) | 2600 nM | > 10000 nM
20 | CN(C)CCc1c[nH]c2cccc(O)c12 [4-hydroxy-N,N-dimethyltryptamine] | 450 nM | 12 nM
